From US20130101666A1, “LIPOSOME INCLUDING ELASTIN-LIKE POLYPEPTIDE CONJUGATED TO MOIETY CONTAINING HYDROPHOBIC GROUP, CHEMOSENSITIZER AND ANTICANCER AGENT AND USE THEREOF” (SAMSUNG ELECTRONICS CO., LTD., priority 2011, published 2013)

Key:
[1] = Amounts of drugs entrapped in liposomes by loading method (HPLC); format: physicochemical
Procedure: Two types of drugs, i.e., doxorubicin and verapamil, were loaded in the liposome. The loading process was performed using an ammonium sulfate gradient method (J. Control. Release 2009, 139, 73-80) or a pH-gradient method (Biochimica et Biophysica Acta 1985, 816, 294-302). In the loading process by the ammonium sulfate gradient method, a drug was added to the liposome solution formed of liposomes with 250 mM or 150 mM of ammonium sulfate inside and 25 mM of Tris-HCl buffer outside. The loading process was performed at a temperature of 37° C. for 60 minutes. In the loading process by the pH-gradient method, a drug was added to the liposome solution formed of liposomes with 300 mM of citrate buffer (pH 4.0) inside and 20 mM of HEPES buffer (150 mM NaCl, pH 7.4) outside. The loading process was performed at a temperature of 37° C. for 60 minutes.
The prepared liposome solution was passed through PD-10 (GE Healthcare) desalting column by flowing physiological saline therethrough to remove unentrapped drug.
Doxorubicin and verapamil entrapped in the liposomes were analyzed by high performance liquid chromatography (HPLC).
The liposomes co-encapsulating certain amounts of doxorubicin and verapamil were diluted and dissolved in dimethylsulfoxide (DMSO) and then introduced into a HPLC column. The analysis by HPLC was performed by eluting the drugs using KH2PO4/MeCN as an eluent and measuring absorbance thereof at 280 nm.
In the loading process, initial concentrations of doxorubicin and verapamil were 500 μg and 250 μg, respectively, based on 1 mL of the liposome solution.

NCI/ADR-RES cells [2] = details: 45° C. for 10 minutes; 10 ug doxorubicin/mL (liposome: +5 ug verapamil/mL); FIG. 7A/7B
Procedure: (§1) In addition, cytotoxicity of the liposome with doxorubicin and verapamil entrapped therein against NCI/ADR-RES cells was confirmed. […] 50% based on the weight of doxorubicin of verapamil, was contained in the liposome. […] In this experiment, NCI/ADR-RES cells were incubated in each of a MEM containing free doxorubicin and a MEM containing the liposome with doxorubicin and verapamil entrapped therein, 10 volume % FBS, and 1 wt % PS at 37° C. for 48 hours. In particular, NCI/ADR-RES cells (5.0×10^4 cells) were cultured in MEM containing 10% (v/v) FBS and 1% penicillin/streptomycin in a well of the 24-well plate for 48 hours. The cultured NCI/ADR-RES cells were treated with the liposomes containing doxorubicin and verapamil at a variety of concentrations, immediately placed in a thermoshaker, and then incubated at 37° C. for 10 minutes. […] Thereafter, the NCI/ADR-RES cells were cultured at 37° C. for 48 hours, and the viability of the NCI/ADR-RES cells was measured using CCK-8 assay kit (Dojindo) by WST (water soluble tetrazolium) assay.
(§2) NCI/ADR-RES cells (5.0×10^4 cells) were cultured in MEM containing 10% (v/v) FBS and 1% penicillin/streptomycin in a well of the 24-well plate for 48 hours. […] Thereafter, the NCI/ADR-RES cells were cultured at 37° C. for 46 hours, and the viability of the NCI/ADR-RES cells was measured using CCK-8 assay kit (Dojindo) by WST assay. […]

NCI/ADR-RES cells [3] = test: Viability of NCI/ADR-RES cells cultured in the presence of doxorubicin (WST assay); format: cell-based; details: Homo sapiens, 20 ug/mL doxorubicin, 37° C. for 2 hours, fresh media, 2 days, FIG. 1, read-out: NCI/ADR-RES cells survived (viability)
Procedure: Tumor cells having a resistance against doxorubicin, i.e., NCI/ADR-RES cells, were cultured in the presence of doxorubicin and the viability of the cells was evaluated. NCI/ADR-RES cells are tumor cells derived from OVCAR-8.
NCI/ADR-RES cells were incubated in minimum essential media (MEM) containing various concentrations of doxorubicin (0.1, 0.5, 1.0, 2.5, 5.0, 10 or 20 ug/mL), 10 volume % fetal bovine serum (FBS), and 1 wt % penicillin-streptomycin (PS) at 37° C. for 2 hours. After the MEM was replaced with fresh media, the cells were incubated at 37° C. for 2 days. The viability of the cells was evaluated by water soluble tetrazolium (WST) assay. FIG. 1 is a graph showing the viability of NCI/ADR-RES cells when being cultured in the presence of doxorubicin.

NCI/ADR-RES cells [4] = test: cells; details: Homo sapiens, 10 min, read-out: cell viability
Procedure: as §1, §2

[5] = ammonium sulfate gradient method, 150 mM ammonium sulfate (inside), 25 mM Tris HCl buffer (outside), initial doxorubicin 500 μg, verapamil 250 μg per 1 mL

Row | Compound | amount of entrapped verapamil [1, 5] [µg/mL] | cell viability (NCI/ADR-RES cells [2]) | viability at 20 µg/mL (NCI/ADR-RES cells [3]) [%] | viability at 20 µg/mL (NCI/ADR-RES cells [4]) [%] | amount of entrapped doxorubicin [1, 5] [µg/mL] | amount of entrapped doxorubicin ([1]; ammonium sulfate gradient method, 250 mM ammonium sulfate (inside), 25 mM Tris HCl buffer (outside), initial doxorubicin 500 μg, verapamil 250 μg per 1 mL) [µg/mL] | amount of entrapped doxorubicin ([1]; pH-gradient method, 300 mM citrate buffer (pH 4.0) (inside), 20 mM HEPES buffer (150 mM NaCl, pH 7.4) (outside)) [µg/mL]
1 | COc1ccc(CCN(C)CCCC(C#N)(c2ccc(OC)c(OC)c2)C(C)C)cc1OC (racemic) [Verapamil, (RS)-2-(3,4-dimethoxyphenyl)-5-{[2-(3,4-dimethoxyphenyl)ethyl]-(methyl)amino}-2-prop-2-ylpentanenitrile] | 1.4 |  |  |  |  |  | 
2 | COc1cccc2c1C(=O)c1c(O)c3c(c(O)c1C2=O)C[C@@](O)(C(=O)CO)C[C@@H]3O[C@H]1C[C@H](N)[C@H](O)[C@H](C)O1 [Doxorubicin, doxorubicin] |  | about 70% | > 70 | 50 | 36.5 | 404 | 42
